The record followed here is publication PMC8878717, “The Oxime Ethers with Heterocyclic, Alicyclic and Aromatic Moiety as Potential Anti-Cancer Agents” (Molecules, 2022).

In brackets after ≈: the same amount, converted by molar mass. Several values for one entry are separate records, joined by “and”; a condition that tells them apart may be missing. Equal values may be shown once. Read-outs that look alike come from different tables or passages of the source.

The subject of series [1] is A549 cells. As to the kind of experiment: MTT cytotoxicity test on A549 cells. In kind it is cell-based. The settings on record: Homo sapiens. On the procedure:
(§1) Therefore, compounds showing the highest cytotoxicity (8, 9, 18, 22, 24–27) were further tested on normal human dermal fibroblasts (HDF), A549, Caco-2, and HeLa cells to compare their activity after 24 h and 72 h culture (Figure 5 and Figure 6).
(§2) 2-Acetylbenzofuran, 2-acetylbenzothiophene, 2-acetylthiophene, 2-acetylthiazole, cyclohexanone and acetophenone derivatives were used for in vitro cytotoxicity assays with cervical adenocarcinoma (HeLa), human dermal fibroblasts (HDF), lung epithelial carcinoma (A549), and intestinal epithelial carcinoma (Caco-2) cell lines. A549, Caco-2, and HeLa cells were obtained from Sigma-Aldrich (Germany), and HDF from Biokom (Poland). All cell lines were cultured according to the manufacturer’s protocol under sterile conditions in the presence of 4.9% CO2 at 37 °C. A549 cells were grown in F-12 medium containing 10% fetal bovine serum (FBS) and 1% penicillin/streptomycin. HDF cells were grown in DMEM (low glucose, with 2 mM glutamine) medium containing 10% fetal bovine serum (FBS) and 1% penicillin/streptomycin. Caco-2 cells were grown in EMEM medium containing 10% fetal bovine serum (FBS), 1% non-essential amino acids (NEAA) and 1% penicillin/streptomycin. HeLa cells were grown in DMEM (low glucose, with 2 mM glutamine) medium containing 10% fetal bovine serum (FBS) and 1% gentamycin. After thawing, cells were cultured until they reached sub-confluent state. The cells were then detached using 0.25% trypsin solution and seeded into 24-well or 96-well plates (3 × 10^3 cells per well) for further experiments. After 24 h growth, the tested compounds were added to the cell cultures in concentrations of 1, 10, 50, 100 and 250 μg mL^−1, respectively, and incubated for the next 24 h or 72 h. The MTT test, based on the ability to reduce 3-(4,5-dimethylthiazol 2-yl)-2,5-diphenyltetrazolium bromide (MTT) by mitochondrial dehydrogenases, was performed in triplicate to assess cell metabolic activity and viability. The plates were then read spectrophotometrically at a wavelength of 570 nm. The dose-dependence curves were charted directly on x-/y-axes, with the drug dosages on the x-axis and the cell viability (percentage of viable cells) on the y-axis.
For orientation: Tetrazolium assays rely on reduction of a dye to a coloured formazan, in cell work by metabolically active cells.

The test system of series [2] is HeLa cells. The series is described as follows: LDH activity test (cell-membrane damage), HeLa cells. In kind it is cell-based. The settings on record: exposure at EC50 concentration. An excerpt:
(§3) Summing up, only a few of the 27 tested derivatives could be promising as potential anti-cancer agents. Two of them—compound 22 and 27—would be a good starting point for future research. Therefore, we sought to compare their ability to induce necrotic cell death. Since necrotic cell death relies on the disruption of cell membrane, it results in the extracellular release of cytoplasmic enzymes such as lactate dehydrogenase (LDH). Thus, we compared LDH activity in the extracellular environment (culture media).
(§4) Additionally, the lactate dehydrogenase (LDH) activity test reflecting cell-membrane damage was performed for cells exposed to selected tested compounds. LDH activity was determined in the culture medium by measuring the decrease in NADH (nicotinamide adenine dinucleotide, reduced disodium salt). The decrease in the amount of NADH was directly correlated to the increase in the number of damaged cells. To measure LDH activity, the culture medium was collected from the wells with cells exposed to concentrations equal to the EC50 values of tested compounds after short- (24 h), and long-time (72 h) exposure. The LDH activity test was performed as follows: 25 μL of NADH (2.5 mg/mL) and 25 μL of sodium pyruvate (2.5 mg/mL) were added to 150 μL of the collected culture medium. Absorbance at 340 nm was spectrophotometrically measured. […]

Series [3] relates to human dermal fibroblasts (HDF). As to the kind of experiment: MTT cytotoxicity test on HDF cells. The settings on record: Homo sapiens, Fibroblast, HDF, MTT. It counts as cell-based. As to the method:
as §1, §2

For series [4], the system named is Caco-2 cells. The series is described as follows: MTT cytotoxicity test on Caco-2 cells. It counts as cell-based, human. As to the method:
as §1, §2

The subject of series [5] is HeLa cells. As to the kind of experiment: MTT cytotoxicity test on HeLa cells. It counts as cell-based, human. On the procedure:
Cytotoxic properties of all compounds were determined by 3-(4,5-dimethylthiazol-2-yl)-2,5-diphenyltetrazolium bromide (MTT) test reflecting cell viability. Cytotoxicity screening of all 27 compounds—2-acetylbenzofuran oxime (6) and its oxime ethers (1–5), as well as: 2-acetylthiophene (7–17), cyclohexanone (18–20), acetophenone (21–23), thiazole (24–25), benzothiazole (26–27) oxime ethers—was performed in vitro on human cervical adenocarcinoma (HeLa) cells as the representatives of cancerous cells.
as §2

In series [6] the test system is cells. The series is described as follows: LDH activity test (cell-membrane damage), cell lines not given. It counts as cell-based, human. The conditions noted are these: exposure at EC50 concentration, 24 h and 72 h; positive control 1% Triton X-100 = 100%.
Source text: as §3, §4

Series [7] can be described thus: MTT cytotoxicity test on HDF cells. It counts as cell-based, human. The settings on record: human, human dermal fibroblasts (HDF); 50 μg/mL, 24 h exposure. As to the method:
as §1, §2

Where [8] appears, read: A549, 24 h, MTT, read-out: EC50 Value A549 24 h.
Setting [9] is: A549, 72 h, MTT, read-out: EC50 Value A549 72 h.
Where [10] appears, read: 24 h, read-out: EC50 Value HDF 24 h.
Setting [11] is: 72 h, read-out: EC50 Value HDF 72 h.
The mark [12] stands for this setting: Homo sapiens, Caco-2, 24 h, MTT, read-out: EC50 Value Caco-2 24 h.
Where [13] appears, read: Homo sapiens, Caco-2, 72 h, MTT, read-out: EC50 Value Caco-2 72 h.
[14] abbreviates: Homo sapiens, HeLa, 24 h, HeLa, 24 h culture, MTT, read-out: EC50 for HeLa Cells.
Where [15] appears, read: Homo sapiens, HeLa, 72 h, HeLa, 72 h, MTT, read-out: EC50 Value HeLa 72 h.

Take `COc1ccc(CO/N=C(\C)c2cc3ccccc3s2)cc1` [Compound 27, (E)-1-(benzothiophene-2-yl)ethanone O-4-methoxybenzyl oxime]: the EC50 (as a rule, the concentration giving half of the maximal effect) was > 250 µg/mL and > 800 µM in series [1] (setting [8]); 143 µg/mL and 460 µM in series [1] (setting [9]); 150 µg/mL and 480 µM in series [3] (setting [10]); 140 µg/mL and 450 µM in series [3] (setting [11]); 122 µg/mL and 390 µM in series [4] (setting [12]); 116 µg/mL and 370 µM in series [4] (setting [13]). The EC50 in series [5] (setting [14]) is 93.8 µg/mL and 300 µM; in series [5] (setting [15]), 28 µg/mL and 90 µM. Further, the “membrane damage and release of LDH” value in series [2] is “extreme membrane damage and release of LDH”. The “EC50 Value Caco-2 72 h” value in series [4] (Caco-2, 72 h, MTT) stood at 116.47 µg/mL (≈ 374 µM). Moreover, the “EC50 Value HeLa 72 h” value in series [5] (HeLa, 72 h, MTT) was 27.9 µg/mL (≈ 89.6 µM).
As to `C/C(=N\OCCN1CCOCC1)c1ccccc1` [Compound 22, (E)-acetophenone O-2-morpholinoethyl oxime], the half-maximal effective concentration (EC50) in series [1] (setting [8]) is 10.2 µg/mL and 40 µM; in series [1] (setting [9]), 30 µM; in series [1] (A549, 72 h, read-out: EC50 A549), approximately 30 µM; in series [3] (setting [10]), 27.3 µg/mL and 110 µM; in series [3] (setting [11]) it was 8.04 µg/mL and 30 µM; in series [4] (setting [12]) it was 9.45 µg/mL and 40 µM. The EC50 in series [4] (setting [13]) is 30 µM; in series [4] (Homo sapiens, Caco-2, 72 h, read-out: EC50 Caco-2) it was approximately 30 µM; in series [5] (setting [14]), 23.1 µg/mL and 90 µM; in series [5] (setting [15]), 30 µM; in series [5] (Homo sapiens, HeLa, 72 h, HeLa, 72 h, read-out: EC50 HeLa) it was approximately 30 µM. Besides, the viability (as a rule, a read-out of living cells in per cent, often relative to untreated cells) at 50 µg/mL in series [1] (A549, 50 μg/mL, 24 h exposure) is approximately 20%; in series [4] (Homo sapiens, Caco-2, 50 μg/mL, 24 h exposure), approximately 20%; in series [5] (Homo sapiens, HeLa, 50 μg/mL, 24 h exposure) it was approximately 20%. In series [6], the “increase in LDH activity outside the cells (of positive control)” value was not above 20%. Also, the viability at 24 h, 50 μg/mL in series [7] was approximately 20%. In addition, in series [5] (100–250 μg/mL, MTT), the “viability of HeLa cells (of control)” value was “below 20%”.
